According to US11532406B2, “High specific activity preparation of F-18 tetrafluoroborate” (Mayo Foundation for Medical Education and Research, priority 2016, dated 2022):
“Also recorded” adds a separate entry of the source.

Assays:
[1] = Estimated plasma / in vivo concentration of TFB after ~400 MBq ^18F-TFB; set-up: species or system human; conditions: specific activity of 8 GBq/μmol, ~400 MBq administered dose
[2] = Stability of ^18F-TFB (radio-TLC and anion chromatography HPLC); format: physicochemical
Procedure: The product ^18F-TFB was analyzed for radiochemical purity by both radio-TLC (MeOH, Rf=0.8-0.85) and anion chromatography HPLC with radioactivity detector (Dionex IC-2100, AS19 analytical column: 4.7×150 mm; eluent: 35 mM KOH; sample volume: 25.L; flow rate: 1 mL/min; retention times: 7.6 min for ^18F-TFB, […]). Chemical purity and specific activity were analyzed by anion chromatography HPLC (retention times: 3.5 min for fluoride, 4.3 min for chloride, and 7.6 min for BF4—). Residual organic solvents were analyzed by GC (helium carrier gas flow at 10 cc/min through a MXTWAX column (Restek, Bellefonte, Pa., 0.53 mm ID, 30 m length)).
After the synthesis, a sample was diluted with water for the analysis. With the eluent of methanol on silica gel plate, purities of >98% were obtained on the radio-TLC scanner.
^18F-TFB was prepared and formulated in sterile 0.9% NaCl under cGMP conditions as previously described (12). Decay-corrected radiochemical yields of 32±2% and radiochemical purities (RCPs) >98% were obtained. Specific radioactivity of 2.2±0.9 GBq/μmol was achieved from starting ^18F-fluoride radioactivity of 20-31 GBq. In vitro RCP remained >96% up to 8 h at room temperature.

[3] = Safety measurements for ^18F-TFB administration (vital signs, clinical laboratory tests); format: in vivo, human
Procedure: Vital signs (heart rate, systolic and diastolic blood pressures, respiratory rate, and temperature) were measured prior to ^18F-TFB administration and at 45 and 240 min post-injection. Venous blood samples were taken prior to ^18F-TFB administration and at ˜240 min post-injection for a panel of clinical laboratory tests to evaluate the safety of the radiotracer administration.

[4] = PET/CT imaging of ^18F-TFB in healthy participants (pharmacokinetics, biodistribution); format: in vivo, human
Excerpt: Approval of the study was obtained from the Mayo Clinic Institutional Review Board and all participants provided informed consent. Four male (36±14 y) and four female (35±8 y) healthy volunteers were enrolled in the study. Participants were excluded that had previous diagnosis of cancer or clinically significant cardiovascular, renal, pulmonary, metabolic, and endocrine (thyroid) diseases. Participants were not required to fast prior to the imaging study but instructed to remain well-hydrated.
The imaging protocol is illustrated in FIG. 13. After voiding of the bladder, participants were positioned in a GE 690XT PET/CT scanner (GE HealthCare, Waukesha, Wis.) in a supine position with the heart in the center of the axial field of view. Intravenous catheters were placed in both arms for radiotracer injection and blood sampling. Computed tomography scans of the thorax were initially acquired in the preparation for a dynamic PET data acquisition over the heart for the first 45 min following commencement of radiotracer administration. ^18F-TFB (333-407 MBq) was administered over 1 minute into one of the catheters. The frame sequence for initial dynamic PET acquisition was 15×4, 8×15, 4×30, and 8×300 seconds. Following the dynamic heart scan, the participants were allowed a break from the scanner, during which time voided their bladders. Two additional PET/CT scans, from the vertex of the skull to mid-thigh, were performed at 2 hours and 3.5 hours respectively. The last PET/CT scan was completed ˜4 h post-injection.
All PET scans images were reconstructed using 3D OSEM and time-of-flight reconstruction. Volumes of interest (VOI's) of organs were drawn using PMOD software (Ver. 3.5). Standardized Uptake Values (SUVs) normalized to body weight were then calculated for each VOI. Time-activity curves (TACs) were evaluated from the initial dynamic scan over the heart for left-ventricular blood pool, lung and liver regions.

[5] = representative participant, post-administration

## F[B-](F)(F)[18F] [^18F-TFB, ^18F-tetrafluoroborate]
[1]
  estimated in vivo concentration of TFB: ~0.02 µM
[2]; after 20 h
  HPLC analysis of the product sample, ^18F-TFB peak: chemically stable
[2]; after 20 h, sample diluted with water, silica gel, methanol
  radiochemical purity by radio-TLC after 20 h: > 96%
[2]; up to 8 h at room temperature, in sterile 0.9% NaCl
  In vitro RCP: > 96%
[3]; blood chemistries, electrolytes, liver and kidney functional tests, relative to baseline
  clinical laboratory test values after administration: No significant changes; also recorded: no significant findings
[3]; eight healthy participants
  adverse effects: no adverse effects
[3]; healthy participants, 333-407 MBq intravenous
  tolerability of administration: well-tolerated; also recorded: well tolerated
[3]; heart rate, blood pressures, respiratory rate, before vs after administration
  vital signs after administration: No significant changes; also recorded: no significant findings
[4]; females, 2 h post-injection
  PET/CT-derived distribution (SUV), Bone: 0.74 ± 0.20 SUV
  PET/CT-derived distribution (SUV), Brain: 0.42 ± 0.15 SUV
  PET/CT-derived distribution (SUV), Breast: 2.8 ± 0.4 SUV
  PET/CT-derived distribution (SUV), Gallbladder: 3.7 ± 1.0 SUV
  PET/CT-derived distribution (SUV), Intestines: 5.0 ± 2.7 SUV
  PET/CT-derived distribution (SUV), Kidney: 5.6 ± 0.7 SUV
  PET/CT-derived distribution (SUV), Liver: 2.7 ± 0.5 SUV
  PET/CT-derived distribution (SUV), Lung: 1.2 ± 0.4 SUV
  PET/CT-derived distribution (SUV), Muscle: 0.65 ± 0.35 SUV
  PET/CT-derived distribution (SUV), Myocardium: 2.8 ± 0.5 SUV
  PET/CT-derived distribution (SUV), Pancreas: 3.1 ± 1.7 SUV
  PET/CT-derived distribution (SUV), Parotid: 20 ± 11 SUV
  PET/CT-derived distribution (SUV), Spleen: 4.3 ± 1.0 SUV
  PET/CT-derived distribution (SUV), Stomach: 72 ± 10 SUV
  PET/CT-derived distribution (SUV), Thyroid: 50 ± 11 SUV
[4]; females, 3.5 h post-injection
  PET/CT-derived distribution (SUV), Bone: 1.3±0.9 SUV
  PET/CT-derived distribution (SUV), Brain: 0.61 ± 0.34 SUV
  PET/CT-derived distribution (SUV), Breast: 3.9 ± 1.4 SUV
  PET/CT-derived distribution (SUV), Gallbladder: 5.0 ± 1.6 SUV
  PET/CT-derived distribution (SUV), Intestines: 6.0 ± 3.1 SUV
  PET/CT-derived distribution (SUV), Kidney: 6.3 ± 2.4 SUV
  PET/CT-derived distribution (SUV), Liver: 3.5 ± 1.6 SUV
  PET/CT-derived distribution (SUV), Lung: 1.5 ± 0.8 SUV
  PET/CT-derived distribution (SUV), Muscle: 0.78 ± 0.54 SUV
  PET/CT-derived distribution (SUV), Myocardium: 3.8 ± 1.8 SUV
  PET/CT-derived distribution (SUV), Pancreas: 3.0 ± 1.2 SUV
  PET/CT-derived distribution (SUV), Parotid: 25 ± 15 SUV
  PET/CT-derived distribution (SUV), Spleen: 5.5 ± 2.8 SUV
  PET/CT-derived distribution (SUV), Stomach: 51 ± 18 SUV
  PET/CT-derived distribution (SUV), Thyroid: 58 ± 12 SUV
[4]; healthy participants
  blood clearance of radioactivity (left-ventricular blood pool time-activity curve): multiphasic; also recorded: multi-phasic
  urinary clearance: prominent
[4]; males, 2 h post-injection
  PET/CT-derived distribution (SUV), Bone: 0.80 ± 0.33 SUV
  PET/CT-derived distribution (SUV), Brain: 0.39 ± 0.14 SUV
  PET/CT-derived distribution (SUV), Gallbladder: 2.7 ± 1.5 SUV
  PET/CT-derived distribution (SUV), Intestines: 2.9 ± 1.0 SUV
  PET/CT-derived distribution (SUV), Kidney: 7.0 ± 2.5 SUV
  PET/CT-derived distribution (SUV), Liver: 2.3 ± 1.0 SUV
  PET/CT-derived distribution (SUV), Lung: 1.0 ± 0.4 SUV
  PET/CT-derived distribution (SUV), Muscle: 0.71 ± 0.31 SUV
  PET/CT-derived distribution (SUV), Myocardium: 3.2 ± 0.9 SUV
  PET/CT-derived distribution (SUV), Pancreas: 3.4 ± 0.7 SUV
  PET/CT-derived distribution (SUV), Parotid: 11 ± 9 SUV
  PET/CT-derived distribution (SUV), Spleen: 4.1 ± 1.2 SUV
  PET/CT-derived distribution (SUV), Stomach: 33 ± 15 SUV
  PET/CT-derived distribution (SUV), Thyroid: 55 ± 31 SUV
[4]; males, 3.5 h post-injection
  PET/CT-derived distribution (SUV), Bone: 1.4±0.5 SUV
  PET/CT-derived distribution (SUV), Brain: 0.74 ± 0.26 SUV
  PET/CT-derived distribution (SUV), Gallbladder: 4.2 ± 1.7 SUV
  PET/CT-derived distribution (SUV), Intestines: 4.4 ± 1.0 SUV
  PET/CT-derived distribution (SUV), Kidney: 11 ± 3 SUV
  PET/CT-derived distribution (SUV), Liver: 3.6 ± 1.2 SUV
  PET/CT-derived distribution (SUV), Lung: 1.7 ± 0.6 SUV
  PET/CT-derived distribution (SUV), Muscle: 0.96 ± 0.31 SUV
  PET/CT-derived distribution (SUV), Myocardium: 5.0 ± 0.9 SUV
  PET/CT-derived distribution (SUV), Pancreas: 6.2 ± 2.1 SUV
  PET/CT-derived distribution (SUV), Parotid: 16 ± 13 SUV
  PET/CT-derived distribution (SUV), Spleen: 6.3 ± 1.1 SUV
  PET/CT-derived distribution (SUV), Stomach: 70 ± 32 SUV
  PET/CT-derived distribution (SUV), Thyroid: 82 ± 42 SUV
[4]; [5]
  time of peak radioactivity concentration, LVBP: ~1 min
  time of peak radioactivity concentration, liver: ~2 min
  time of peak radioactivity concentration, lung: ~1 min
[4]; whole-body PET/CT at 2 h post-injection
  uptake in thyroid, stomach, salivary glands and kidney: Robust uptake; also recorded: high uptakes
